Results as given in ChEMBL document CHEMBL3046969, “Synthesis, structure, and biological assay of cinnamic amides as potential EGFR kinase inhibitors” (Med Chem Res, 2013).

Assays:
[1] = biological target: Epidermal growth factor receptor (Homo sapiens, UniProt P00533); assay: Inhibition of autophosphorylation of His6-tagged EGFR cytoplasmic domain (unknown origin) expressed in Sf9 cells by DELFIA time resolved fluorometry; type: cell-based
[2] = test system: MCF7; assay: cells; type: functional, cell-based; settings: Homo sapiens, MCF7, 48 h
Description: Antiproliferative activity against Homo sapiens (human) MCF-7 cells overexpressing EGFR assessed as inhibition of cell survival after 48 hr by MTT assay

Chain of Epidermal growth factor receptor (P00533 whole entry, the tested form may be a part): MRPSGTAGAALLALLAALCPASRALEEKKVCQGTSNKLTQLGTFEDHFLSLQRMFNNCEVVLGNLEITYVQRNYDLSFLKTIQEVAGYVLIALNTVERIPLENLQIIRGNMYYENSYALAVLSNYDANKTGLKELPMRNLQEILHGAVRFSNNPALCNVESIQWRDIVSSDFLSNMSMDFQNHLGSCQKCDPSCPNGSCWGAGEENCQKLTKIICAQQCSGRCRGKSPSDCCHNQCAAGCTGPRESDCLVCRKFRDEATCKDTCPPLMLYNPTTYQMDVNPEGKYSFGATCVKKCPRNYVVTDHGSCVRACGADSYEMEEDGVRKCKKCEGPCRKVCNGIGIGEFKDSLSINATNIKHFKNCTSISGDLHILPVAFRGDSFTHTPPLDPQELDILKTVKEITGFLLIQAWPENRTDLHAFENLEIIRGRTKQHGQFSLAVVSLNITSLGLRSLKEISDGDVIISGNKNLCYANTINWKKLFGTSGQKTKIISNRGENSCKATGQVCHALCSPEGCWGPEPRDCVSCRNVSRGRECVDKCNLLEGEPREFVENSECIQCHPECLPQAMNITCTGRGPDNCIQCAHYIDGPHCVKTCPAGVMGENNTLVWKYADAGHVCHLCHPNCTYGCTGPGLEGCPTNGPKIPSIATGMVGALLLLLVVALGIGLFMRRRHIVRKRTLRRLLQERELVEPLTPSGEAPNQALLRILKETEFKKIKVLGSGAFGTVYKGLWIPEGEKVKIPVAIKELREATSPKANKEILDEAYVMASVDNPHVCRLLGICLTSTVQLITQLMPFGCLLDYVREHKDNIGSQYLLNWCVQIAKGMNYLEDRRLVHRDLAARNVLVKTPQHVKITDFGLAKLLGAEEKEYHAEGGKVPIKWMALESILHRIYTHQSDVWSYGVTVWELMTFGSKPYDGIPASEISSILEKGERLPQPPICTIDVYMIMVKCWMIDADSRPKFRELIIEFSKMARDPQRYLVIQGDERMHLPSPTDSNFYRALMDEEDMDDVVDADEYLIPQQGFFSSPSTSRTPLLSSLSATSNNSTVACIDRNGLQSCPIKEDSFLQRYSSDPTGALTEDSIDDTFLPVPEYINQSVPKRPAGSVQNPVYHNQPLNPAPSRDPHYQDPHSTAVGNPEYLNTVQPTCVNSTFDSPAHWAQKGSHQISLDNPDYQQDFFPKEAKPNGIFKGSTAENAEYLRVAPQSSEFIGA

Row | SMILES | IC50 [1] | IC50 [2]
1 | CC(C)c1ccc(NC(=O)/C=C/c2ccccc2)cc1 | 14.6 µM | 5.39 µM
2 | CCOc1ccc(NC(=O)/C=C/c2ccccc2)cc1 | 10.2 µM | 3.3 µM
3 | O=C(/C=C/c1ccccc1)Nc1ccc(F)cc1F | 11.7 µM | 4.14 µM
4 | O=C(/C=C/c1ccccc1)Nc1cc(Cl)cc(Cl)c1 | 13.9 µM | 4.47 µM
5 | CCCCCCCCCCCCNC(=O)/C=C/c1ccccc1 [N-DODECYLCINNAMAMIDE] | 38.5 µM | 13.4 µM
6 | Cc1cccc(NC(=O)/C=C/c2ccccc2)c1 [N-M-TOLYLCINNAMAMIDE] | 19.7 µM | 5.83 µM
7 | Cc1ccc(NC(=O)/C=C/c2ccccc2)cc1 [N-P-TOLYLCINNAMAMIDE] | 12.7 µM | 3.26 µM

Results, then the compound that gave them:

Row | IC50 [1] | IC50 [2] | SMILES
8 | 9.35 µM | 2.43 µM | CCOc1ccccc1NC(=O)/C=C/c1ccccc1
9 | 13.2 µM | 4.65 µM | O=C(/C=C/c1ccccc1)Nc1cc(F)cc(F)c1
10 | 12.9 µM | 2.89 µM | O=C(/C=C/c1ccccc1)Nc1cc(F)c(F)c(F)c1
11 | 16.2 µM | 4 µM | O=C(/C=C/c1ccccc1)Nc1ccc(Cl)cc1Cl
12 | 15.7 µM | 4.05 µM | O=C(/C=C/c1ccccc1)Nc1ccccc1Br
13 |  | 0.22 µM | C#Cc1cccc(Nc2ncnc3cc(OCCOC)c(OCCOC)cc23)c1 [ERLOTINIB]
14 | 12.3 µM | 3.17 µM | Cc1ccccc1NC(=O)/C=C/c1ccccc1 [N-O-TOLYLCINNAMAMIDE]
15 | 29.8 µM | 11.1 µM | CC(C)(C)NC(=O)/C=C/c1ccccc1 [N-TERT-BUTYLCINNAMAMIDE]
